Data set [1] is described as follows: PAMPA-BBB assay. Also noted: Papp at 18 h: dose or concentration left out as unconfirmed. As to conditions: for Papp at 18 h: pig, PAMPA. The procedure:
(§1) The relative passive transcellular diffusion of compounds, expressed as permeability coefficient (Pe), was determined with a permeability equation. ^[45] The permeabilities of 1, 2, and 1400 W were determined at pH 5.0, 6.5, and 7.4 to mimic the physiological conditions of the GI tract (Table 1). […] As the new prodrug was designed for the potential treatment of neurodegenerative diseases, an important parameter is its capability to cross the BBB.
PAMPA‐BBB assays were performed following the same procedure described above for PAMPA‐GI. Briefly, an artificial membrane consisting in a porcine polar brain lipid extract mixture (purchased from Avantis Polar Lipids, Alabaster, AL, USA) and an incubation time of 18 h were adopted as experimental conditions.

Data set [2] is described as follows: PAMPA-GI assay. Also noted: Papp at 2 h: dose or concentration left out as unconfirmed. As to conditions: for Papp at 2 h: PAMPA; for PAMPA-GI permeability (in words): only at pH 7.4. The protocol:
as §1
Each donor filtration plate well, carefully impregnated with 5 µL of this solution, was added of 150 μL of […] test compound buffer solutions (phosphate buffer for pH 7.4 and pH 6.5 and hydrochloric acid buffer for pH 1.4). Subsequently, the drug‐filled donor plate was placed onto the acceptor plate prefilled with the same buffer (300 μL) as the acceptor solution. Once replaced the plate lid, the resulting assembled donor‐acceptor plates were incubated at room temperature for 2 h. The concentration in the acceptor and donor solutions were determined by HPLC. The Pe was determined as previously reported. ^[47]
A general note: In PAMPA a lipid-coated filter parts donor from acceptor wells.

Data set [3] is described as follows: Log D and log P by shake-flask method. As to conditions: for logP: shake-flask, as free amine, mean ± SD of three. The data set is classed as physicochemical. The source says:
The herein presented amidoxime 2 was designed as prodrug of the amidine 1 to improve membrane permeability and oral bioavailability. In this context, the deepening of the physicochemical properties is essential to obtain a favorable pharmacological profile. Therefore, we investigated the lipophilicity, the passive permeation through the human GI tract through the PAMPA assays, and the chemical and enzymatic stabilities in simulated GI fluids and plasma. […] In this study, the lipophilicity of our compounds was determined by means of the “shake‐flask method” and compared to the corresponding values calculated by the software. ^[43] However, for ionizable compounds, the distribution coefficient (log D) should be used instead of log P in the pH range where ionic species exist. ^[44] In this study, log P and log D were calculated (Table 1).
The column was a Waters Symmetry RP‐C18 column (4.6×150 mm, 5 μm). The mobile phase was a mixture of TFA 0.01 M/ACN/(MeOH/THF 90 : 10) 20/52/28 and the flow rate was 0.7 mL/min. The UV detector was set at a length of 254 nm.
Both n‐octanol and aqueous buffer (pH 1.4, 6.5 and 9.4) solutions were saturated of each other. 2 mg of tested compound was dissolved in 500 μL of organic phase and mixed with an equal volume of aqueous buffer by repeated inversions of up to 200 times for 5 min and then allowed to stand for 30 min for the phases to fully separate. Thereafter, the respective phases were analyzed by HPLC.

For data set [4], the system named is eNOS. The arrangement: method as in PMID 20933416. As to conditions: previously reported; cited from earlier work.
Data set [5] deals with nNOS. Also noted: method as in PMID 20933416. As to conditions: previously reported; cited from earlier work.
Data set [6] relates to iNOS. Also noted: method as in PMID 20933416. As to conditions: previously reported; cited from earlier work.
The subject of data set [7] is mARC. The arrangement: method as in PMID 31790578. As to conditions: known in vivo studies; cited from earlier work.
[8] abbreviates: porcine polar brain lipid, 18 h.

By Papp is commonly meant the rate of passage across a membrane or cell layer, normalised by area and donor concentration. As a reminder, the logP is the decadic logarithm of the partition coefficient of the neutral form, usually between octanol and water. By melting point is commonly meant the temperature of the solid-liquid transition. One may read the IC50 as the concentration needed to halve the response being measured.

Where two headings read alike, the source gives them in different places.

On to `CC(=N)NCc1cccc(CN)c1` [1400 W, reference compound], for which the apparent permeability (Papp) at 18 h in data set [1] was found to be 14.9 nm/s. For the same compound, in data set [1] (setting [8]), the PAMPA-BBB permeation class entry is listed as “CNS− (CNS− (indicative of low BBB permeation): Pe <2.0)”. Besides, the apparent permeability coefficient (Papp) at 2 h in data set [2] (pH 1.4) is 9.8 nm/s; in data set [2] (pH 6.5) it was 10.2 nm/s; in data set [2] (pH 7.4) it was 18.6 nm/s. The “PAMPA-GI permeability (in words)” value in data set [2] is on record as “good permeability”. The logD in data set [3] (n-octanol/aqueous buffer pH 1.4, mean ± SD of three, read-out: log D 1.4) is -1.82; in data set [3] (n-octanol/aqueous buffer pH 6.5, mean ± SD of three, read-out: log D 6.5) it was -1.78; in data set [3] (n-octanol/aqueous buffer pH 9.4, mean ± SD of three, read-out: log D 9.4) it was -1.66. Besides, in data set [3] (n-octanol/aqueous buffer), the logP was -1.66.
`Br.CC(=N)NC(c1ccccc1)c1ccccc1` [Compound 1, 1‐(benzhydrylamino)ethaniminium bromide] had a melting point of 278 to 280 °C. Further, in data set [4], the eNOS/nNOS selectivity was 1166 folds. Further, the Papp at 18 h in data set [1] (PAMPA-BBB permeability Pe, porcine polar brain lipid, 18 h) was 27 nm/s. Besides, the PAMPA-BBB permeation class entry in data set [1] (setting [8]) is “CNS± (CNS± (discrete BBB permeation): Pe from 4.0 to 2.0)”. Moreover, the apparent permeability (Papp) at 2 h in data set [2] (pH 1.4) came out at 5.7 nm/s. In data set [2] (pH 6.5), the Papp at 2 h is 10.2 nm/s. Moreover, in data set [2] (pH 7.4), the apparent permeability (Papp) at 2 h was determined as 18.8 nm/s. The “PAMPA-GI permeability (in words)” value in data set [2] is reported as “good permeability”. Besides, the IC50 in data set [5] was 0.3 µM. For the same compound, in data set [6], the iNOS/nNOS selectivity is reported as 100 folds. The logD in data set [3] (n-octanol/aqueous buffer, pH 1.4, n-octanol/aqueous buffer pH 1.4, mean ± SD of three, read-out: log D 1.4) was -0.85. Also, the logD in data set [3] (n-octanol/aqueous buffer, pH 6.5, n-octanol/aqueous buffer pH 6.5, mean ± SD of three, read-out: log D 6.5) was -0.31. The logD in data set [3] (n-octanol/aqueous buffer, pH 9.4, n-octanol/aqueous buffer pH 9.4, mean ± SD of three, read-out: log D 9.4) is 0.75. In data set [3] (n-octanol/aqueous buffer), this compound displayed a logP of 2.54.
With `NC(=NO)c1ccccc1` [BAO, benzamidoxime], the “conversion to the corresponding benzamidine in vivo” value in data set [7] is on record as “completely converted”.

These data come from article PMC7756445, “A Novel Prodrug of a nNOS Inhibitor with Improved Pharmacokinetic Potential” (Chemmedchem, 2020).
